Data: patent US9617244B2, “Antibacterial quinoline derivatives” (JANSSEN PHARMACEUTICA NV, priority 2012, dated 2017)
Values after ≈ are worked out from the molar mass of the structure shown.

system: Staphylococcus aureus (ATCC29213); assay: In-vitro anti-bacterial activity, microtitre plate assay, IC90 determination (non-mycobacterial strains); format: cell-based; conditions: 90% inhibitory concentration for bacterial growth, 24 hours, resazurin fluorescence
Outline: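 Growth inhibition measured fluorometrically with resazurin (530/590 nm) after overnight 37 °C incubation under normal atmosphere. Bacteria added at roughly 100 TCID50 per well in Mueller-Hinton broth to five-fold compound dilution series; IC90 reported in μg/ml.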

| Compound | IC90 STA B29213 [µg/mL] |
| --- | --- |
| COc1nc2ccc(S(C)(=O)=O)cc2cc1C(c1ccccc1)C1(O)CCNC(c2ccc(F)cc2C)C1 (stereo not drawn) [Compound 187] | >13.43 |
| COc1nc2ccc(SC)cc2cc1C(c1ccc(Cl)cc1)C1(O)CCNC(Cc2ccc(F)c(F)c2)C1 (stereo not drawn) [Compound 189] | 1.76 (≈ 3.17 µM) |
| COc1nc2ccc(SC)cc2cc1C(c1ccc(Cl)cc1)C1(O)CCNC(Cc2ccc(F)c(F)c2)C1 (stereo not drawn) [Compound 191] | 3.50 (≈ 6.31 µM) |
| COc1nc2ccc(Br)cc2cc1C(c1ccccc1)C1(O)CCNC(c2ccc(F)cc2C)C1 (stereo not drawn) [Compound 193] | 5.35 (≈ 9.99 µM) |
| COc1nc2ccc(Br)cc2cc1C(c1ccccc1)C1(O)CCNC(c2ccc(F)cc2C)C1 (stereo not drawn) [Compound 194] | 1.69 (≈ 3.16 µM) |
| COc1nc2ccc(SC)cc2cc1C(c1ccccc1)C1(O)CCNC(c2ccc(F)cc2C)C1 (stereo not drawn) [Compound 195] | 3.17 (≈ 6.31 µM) |
| COc1nc2ccc(SC)cc2cc1C(c1ccccc1)C1(O)CCNC(c2ccc(F)cc2C)C1 (stereo not drawn) [Compound 197] | 1.59 (≈ 3.16 µM) |
| COc1nc2ccc(SC)cc2cc1C(c1ccccc1)C1(O)CCNC(c2ccc(F)cc2C)C1 (stereo not drawn) [Compound 198] | 3.17 (≈ 6.31 µM) |
| COc1nc2ccc(S(C)(=O)=O)cc2cc1C(c1ccc(Cl)cc1)C1(O)CCNC(c2ccc(F)cc2C)C1 (stereo not drawn) [Compound 199] | 7.16 (≈ 12.6 µM) |
| COc1nc2ccc(S(C)(=O)=O)cc2cc1C(c1ccc(Cl)cc1)C1(O)CCNC(c2ccc(F)cc2C)C1 (stereo not drawn) [Compound 200] | 5.69 (≈ 10 µM) |
| COc1nc2ccc(S(C)(=O)=O)cc2cc1C(c1ccc(Cl)cc1)C1(O)CCNC(c2ccc(F)cc2C)C1 (stereo not drawn) [Compound 202] | 1.80 (≈ 3.16 µM) |
| CSc1ccc2[nH]c(=O)c(C(c3ccc(Cl)cc3)C3(O)CCNC(Cc4ccc(F)c(F)c4)C3)cc2c1 (stereo not drawn) [Compound 203] | 10.80 (≈ 20 µM) |
| COc1nc2ccc(S(C)(=O)=O)cc2cc1C(c1ccc(Cl)cc1)C1(O)CCNC(c2ccc(F)cc2C)C1 (stereo not drawn) [Compound 216] | 7.16 (≈ 12.6 µM) |
| COc1nc2ccc(S(C)(=O)=O)cc2cc1C(c1ccc(Cl)cc1)C1(O)CCNC(c2ccc(F)cc2C)C1 (stereo not drawn) [Compound 217] | 1.27 (≈ 2.23 µM) |
| COc1nc2ccc(S(C)(=O)=O)cc2cc1C(c1ccc(Cl)cc1)C1(O)CCNC(c2ccc(F)cc2C)C1 (stereo not drawn) [Compound 218] | 5.69 (≈ 10 µM) |

same assay, conditions: Staphylococcus aureus, ATCC29213, 24 h, 90% inhibitory concentration for bacterial growth, resazurin fluorescence, read-out: IC90 STA B29213

| Compound | IC90 [µg/mL] |
| --- | --- |
| CN1CCC(O)(C(c2ccc(Cl)cc2)c2cc3cc(Br)ccc3[nH]c2=O)CC1Cc1ccccc1 (stereo not drawn) [Compound 84] | 6.95 (≈ 12.6 µM) |
| COc1nc2ccc(Br)cc2cc1C(c1ccc(Cl)cc1)C1(O)CCNC(c2ccc(F)cc2C)C1 (stereo not drawn) [Compound 104] | 1.8 (≈ 3.16 µM) |
| COc1nc2ccc(Br)cc2cc1C(c1ccc(Cl)cc1)C1(O)CCNC(C)C1 (stereo not drawn) [Compound 124] | 3 (≈ 6.3 µM) |
| CS(=O)(=O)c1ccc2[nH]c(=O)c(C(c3ccccc3)C3(O)CCNC(Cc4ccccc4)C3)cc2c1 (stereo not drawn) [Compound 153] | > 12.6 |
| COc1nc2ccc(S(C)(=O)=O)cc2cc1C(c1ccccc1)C1(O)CCNC(Cc2ccccc2)C1 (stereo not drawn) [Compound 157] | > 13 |
| COc1nc2ccc(S(C)(=O)=O)cc2cc1C(c1ccccc1)C1(O)CCNC(c2ccc(F)cc2C)C1 (stereo not drawn) [Compound 184] | 13.4 (≈ 25.1 µM) |
| COc1nc2ccc(S(C)(=O)=O)cc2cc1C(c1ccc(Cl)cc1)C1(O)CCNC(Cc2ccc(F)c(F)c2)C1 (stereo not drawn) [Compound 211] | 14.8 (≈ 25.1 µM) |

system: Mycobacterium smegmatis (ATCC607); assay: In-vitro anti-bacterial activity against strain M. Smegmatis ATCC607; format: cell-based; conditions: 90% inhibitory concentration for bacterial growth, 48 hours, Alamar Blue fluorescence
Outline: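 IC90 (μg/ml) derived from Alamar Blue fluorescence (530/590 nm) after 48 h growth at 37 °C under 5% CO2. About 250 CFU per well in Mueller-Hinton broth faced five-fold serial compound dilutions in BSA-containing wells.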

| Compound | IC90 MSM 607 [µg/mL] |
| --- | --- |
| COc1nc2ccc(S(C)(=O)=O)cc2cc1C(c1ccccc1)C1(O)CCNC(c2ccc(F)cc2C)C1 (stereo not drawn) [Compound 187] | 13.43 (≈ 25.1 µM) |
| COc1nc2ccc(SC)cc2cc1C(c1ccc(Cl)cc1)C1(O)CCNC(Cc2ccc(F)c(F)c2)C1 (stereo not drawn) [Compound 189] | 2.78 (≈ 5.01 µM) |
| COc1nc2ccc(SC)cc2cc1C(c1ccc(Cl)cc1)C1(O)CCNC(Cc2ccc(F)c(F)c2)C1 (stereo not drawn) [Compound 191] | 3.50 (≈ 6.31 µM) |
| COc1nc2ccc(Br)cc2cc1C(c1ccccc1)C1(O)CCNC(c2ccc(F)cc2C)C1 (stereo not drawn) [Compound 193] | 5.35 (≈ 9.99 µM) |
| COc1nc2ccc(Br)cc2cc1C(c1ccccc1)C1(O)CCNC(c2ccc(F)cc2C)C1 (stereo not drawn) [Compound 194] | 2.68 (≈ 5.01 µM) |
| COc1nc2ccc(SC)cc2cc1C(c1ccccc1)C1(O)CCNC(c2ccc(F)cc2C)C1 (stereo not drawn) [Compound 195] | 2.00 (≈ 3.98 µM) |
| COc1nc2ccc(SC)cc2cc1C(c1ccccc1)C1(O)CCNC(c2ccc(F)cc2C)C1 (stereo not drawn) [Compound 197] | 1.59 (≈ 3.16 µM) |
| COc1nc2ccc(SC)cc2cc1C(c1ccccc1)C1(O)CCNC(c2ccc(F)cc2C)C1 (stereo not drawn) [Compound 198] | 3.17 (≈ 6.31 µM) |
| COc1nc2ccc(S(C)(=O)=O)cc2cc1C(c1ccc(Cl)cc1)C1(O)CCNC(c2ccc(F)cc2C)C1 (stereo not drawn) [Compound 199] | 7.16 (≈ 12.6 µM) |
| COc1nc2ccc(S(C)(=O)=O)cc2cc1C(c1ccc(Cl)cc1)C1(O)CCNC(c2ccc(F)cc2C)C1 (stereo not drawn) [Compound 200] | 5.69 (≈ 10 µM) |
| COc1nc2ccc(S(C)(=O)=O)cc2cc1C(c1ccc(Cl)cc1)C1(O)CCNC(c2ccc(F)cc2C)C1 (stereo not drawn) [Compound 202] | 2.27 (≈ 3.99 µM) |
| COc1nc2ccc(S(C)(=O)=O)cc2cc1C(c1ccc(Cl)cc1)C1(O)CCNC(c2ccc(F)cc2C)C1 (stereo not drawn) [Compound 216] | 5.69 (≈ 10 µM) |
| COc1nc2ccc(S(C)(=O)=O)cc2cc1C(c1ccc(Cl)cc1)C1(O)CCNC(c2ccc(F)cc2C)C1 (stereo not drawn) [Compound 217] | 0.90 (≈ 1.58 µM) |
| COc1nc2ccc(S(C)(=O)=O)cc2cc1C(c1ccc(Cl)cc1)C1(O)CCNC(c2ccc(F)cc2C)C1 (stereo not drawn) [Compound 218] | 2.85 (≈ 5.01 µM) |

same assay, conditions: Mycolicibacterium smegmatis, ATCC607, 48 h, 90% inhibitory concentration for bacterial growth, Alamar Blue fluorescence, read-out: IC90 MSM 607

| Compound | IC90 [µg/mL] |
| --- | --- |
| CN1CCC(O)(C(c2ccc(Cl)cc2)c2cc3cc(Br)ccc3[nH]c2=O)CC1Cc1ccccc1 (stereo not drawn) [Compound 84] | 5.52 (≈ 10 µM) |
| COc1nc2ccc(Br)cc2cc1C(c1ccc(Cl)cc1)C1(O)CCNC(c2ccc(F)cc2C)C1 (stereo not drawn) [Compound 104] | 1.14 (≈ 2 µM) |
| COc1nc2ccc(Br)cc2cc1C(c1ccc(Cl)cc1)C1(O)CCNC(C)C1 (stereo not drawn) [Compound 124] | 3 (≈ 6.3 µM) |
| CS(=O)(=O)c1ccc2[nH]c(=O)c(C(c3ccccc3)C3(O)CCNC(Cc4ccccc4)C3)cc2c1 (stereo not drawn) [Compound 153] | > 12.6 |
| COc1nc2ccc(S(C)(=O)=O)cc2cc1C(c1ccccc1)C1(O)CCNC(Cc2ccccc2)C1 (stereo not drawn) [Compound 157] | > 13 |
| COc1nc2ccc(S(C)(=O)=O)cc2cc1C(c1ccccc1)C1(O)CCNC(c2ccc(F)cc2C)C1 (stereo not drawn) [Compound 184] | 13.4 (≈ 25.1 µM) |
| CSc1ccc2[nH]c(=O)c(C(c3ccc(Cl)cc3)C3(O)CCNC(Cc4ccc(F)c(F)c4)C3)cc2c1 (stereo not drawn) [Compound 203] | 6.81 (≈ 12.6 µM) |
| COc1nc2ccc(S(C)(=O)=O)cc2cc1C(c1ccc(Cl)cc1)C1(O)CCNC(Cc2ccc(F)c(F)c2)C1 (stereo not drawn) [Compound 211] | 7.39 (≈ 12.6 µM) |

system: not given; assay: not given; conditions: not given

| Compound | melting point [°C] |
| --- | --- |
| CN1CCC(O)(C(c2ccc(Cl)cc2)c2cc3cc(Br)ccc3[nH]c2=O)CC1Cc1ccccc1 (stereo not drawn) [Compound 84] | 238 |
| COc1nc2ccc(Br)cc2cc1C(c1ccc(Cl)cc1)C1(O)CCNC(c2ccc(F)cc2C)C1 (stereo not drawn) [Compound 104] | 160 |
| COc1nc2ccc(Br)cc2cc1C(c1ccc(Cl)cc1)C1(O)CCNC(C)C1 (stereo not drawn) [Compound 124] | 164 |
| CS(=O)(=O)c1ccc2[nH]c(=O)c(C(c3ccccc3)C3(O)CCNC(Cc4ccccc4)C3)cc2c1 (stereo not drawn) [Compound 153] | 183 |
| COc1nc2ccc(S(C)(=O)=O)cc2cc1C(c1ccccc1)C1(O)CCNC(Cc2ccccc2)C1 (stereo not drawn) [Compound 157] | 100 |
| COc1nc2ccc(S(C)(=O)=O)cc2cc1C(c1ccccc1)C1(O)CCNC(c2ccc(F)cc2C)C1 (stereo not drawn) [Compound 184] | 172 |
| COc1nc2ccc(S(C)(=O)=O)cc2cc1C(c1ccccc1)C1(O)CCNC(c2ccc(F)cc2C)C1 (stereo not drawn) [Compound 187] | 167 |
| COc1nc2ccc(SC)cc2cc1C(c1ccc(Cl)cc1)C1(O)CCNC(Cc2ccc(F)c(F)c2)C1 (stereo not drawn) [Compound 189] | 160 |
| COc1nc2ccc(SC)cc2cc1C(c1ccc(Cl)cc1)C1(O)CCNC(Cc2ccc(F)c(F)c2)C1 (stereo not drawn) [Compound 191] | 162 |
| COc1nc2ccc(Br)cc2cc1C(c1ccccc1)C1(O)CCNC(c2ccc(F)cc2C)C1 (stereo not drawn) [Compound 193] | 147 |
| COc1nc2ccc(Br)cc2cc1C(c1ccccc1)C1(O)CCNC(c2ccc(F)cc2C)C1 (stereo not drawn) [Compound 194] | 149 |
| COc1nc2ccc(SC)cc2cc1C(c1ccccc1)C1(O)CCNC(c2ccc(F)cc2C)C1 (stereo not drawn) [Compound 195] | 153 |
| COc1nc2ccc(SC)cc2cc1C(c1ccccc1)C1(O)CCNC(c2ccc(F)cc2C)C1 (stereo not drawn) [Compound 197] | 138 |
| COc1nc2ccc(SC)cc2cc1C(c1ccccc1)C1(O)CCNC(c2ccc(F)cc2C)C1 (stereo not drawn) [Compound 198] | 187 |
| COc1nc2ccc(S(C)(=O)=O)cc2cc1C(c1ccc(Cl)cc1)C1(O)CCNC(c2ccc(F)cc2C)C1 (stereo not drawn) [Compound 199] | 192 |
| COc1nc2ccc(S(C)(=O)=O)cc2cc1C(c1ccc(Cl)cc1)C1(O)CCNC(c2ccc(F)cc2C)C1 (stereo not drawn) [Compound 200] | 187 |
| COc1nc2ccc(S(C)(=O)=O)cc2cc1C(c1ccc(Cl)cc1)C1(O)CCNC(c2ccc(F)cc2C)C1 (stereo not drawn) [Compound 202] | 186 |
| CSc1ccc2[nH]c(=O)c(C(c3ccc(Cl)cc3)C3(O)CCNC(Cc4ccc(F)c(F)c4)C3)cc2c1 (stereo not drawn) [Compound 203] | > 250 |
| COc1nc2ccc(S(C)(=O)=O)cc2cc1C(c1ccc(Cl)cc1)C1(O)CCNC(Cc2ccc(F)c(F)c2)C1 (stereo not drawn) [Compound 211] | 150 |
| COc1nc2ccc(S(C)(=O)=O)cc2cc1C(c1ccc(Cl)cc1)C1(O)CCNC(c2ccc(F)cc2C)C1 (stereo not drawn) [Compound 216] | 152 |
| COc1nc2ccc(S(C)(=O)=O)cc2cc1C(c1ccc(Cl)cc1)C1(O)CCNC(c2ccc(F)cc2C)C1 (stereo not drawn) [Compound 217] | 169 |
| COc1nc2ccc(S(C)(=O)=O)cc2cc1C(c1ccc(Cl)cc1)C1(O)CCNC(c2ccc(F)cc2C)C1 (stereo not drawn) [Compound 218] | 174 |
